Test system: patient with sequelae of coronavirus pneumonia (omicron variant of coronavirus)
Conditions: human, in vivo

## [HH] [hydrogen gas, hydrogen]
  Daily headache and migraine that occurred several times a day: relieved
  Generalized pain, difficulty breathing, feeling of faintness, malaise, fatigue after exertion, sleeping disorder, low-grade fever, bradycardia, blood pressure drop: continues to alleviate symptoms
  State of pulmonary fibrosis: improving
  Time after which sleeping disorder improved: about 3 days

From patent US20230256007A1 (priority 2022, published 2023)
